What all share (test): kinome screen (33PanQinase)
Common to all, as to type: biochemical

Assay [1] concerns the target T1, TNK1 (Homo sapiens, UniProt Q13470).
T1 construct: purchased Reaction Biology Europe GmbH (formerly ProQinase)
T1 sequence (Q13470 1-666): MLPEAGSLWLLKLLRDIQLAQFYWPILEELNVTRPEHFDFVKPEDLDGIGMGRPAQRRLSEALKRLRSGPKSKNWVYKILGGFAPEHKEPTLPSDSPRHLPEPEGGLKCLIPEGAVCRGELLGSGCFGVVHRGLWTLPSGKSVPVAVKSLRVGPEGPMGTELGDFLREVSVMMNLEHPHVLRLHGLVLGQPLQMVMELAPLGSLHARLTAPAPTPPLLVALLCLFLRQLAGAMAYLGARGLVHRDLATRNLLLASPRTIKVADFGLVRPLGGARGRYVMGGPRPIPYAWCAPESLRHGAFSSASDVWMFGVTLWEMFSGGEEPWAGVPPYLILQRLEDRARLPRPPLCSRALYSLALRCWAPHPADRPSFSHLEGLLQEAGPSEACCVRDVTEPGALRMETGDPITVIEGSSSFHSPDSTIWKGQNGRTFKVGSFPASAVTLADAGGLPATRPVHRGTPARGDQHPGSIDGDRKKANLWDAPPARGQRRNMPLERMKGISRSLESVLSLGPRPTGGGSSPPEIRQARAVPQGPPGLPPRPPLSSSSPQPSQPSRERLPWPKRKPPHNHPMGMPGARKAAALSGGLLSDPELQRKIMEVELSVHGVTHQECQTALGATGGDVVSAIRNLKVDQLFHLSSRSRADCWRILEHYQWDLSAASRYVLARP
As for the experimental part: (§1) The Kinome Screening was performed by Reaction Biology Europe GmbH (http://reactionbiology.com; Freiburg i. Br., Germany).

Assay [2] deals with T2, MTOR (Homo sapiens, UniProt P42345).
T2 construct: purchased Reaction Biology Europe GmbH (formerly ProQinase)
As for the experimental part:
as §1

The target of assay [3] is T3, GRK2 (Homo sapiens, UniProt P25098).
T3 construct: purchased Reaction Biology Europe GmbH (formerly ProQinase)
T3 sequence (P25098 1-689): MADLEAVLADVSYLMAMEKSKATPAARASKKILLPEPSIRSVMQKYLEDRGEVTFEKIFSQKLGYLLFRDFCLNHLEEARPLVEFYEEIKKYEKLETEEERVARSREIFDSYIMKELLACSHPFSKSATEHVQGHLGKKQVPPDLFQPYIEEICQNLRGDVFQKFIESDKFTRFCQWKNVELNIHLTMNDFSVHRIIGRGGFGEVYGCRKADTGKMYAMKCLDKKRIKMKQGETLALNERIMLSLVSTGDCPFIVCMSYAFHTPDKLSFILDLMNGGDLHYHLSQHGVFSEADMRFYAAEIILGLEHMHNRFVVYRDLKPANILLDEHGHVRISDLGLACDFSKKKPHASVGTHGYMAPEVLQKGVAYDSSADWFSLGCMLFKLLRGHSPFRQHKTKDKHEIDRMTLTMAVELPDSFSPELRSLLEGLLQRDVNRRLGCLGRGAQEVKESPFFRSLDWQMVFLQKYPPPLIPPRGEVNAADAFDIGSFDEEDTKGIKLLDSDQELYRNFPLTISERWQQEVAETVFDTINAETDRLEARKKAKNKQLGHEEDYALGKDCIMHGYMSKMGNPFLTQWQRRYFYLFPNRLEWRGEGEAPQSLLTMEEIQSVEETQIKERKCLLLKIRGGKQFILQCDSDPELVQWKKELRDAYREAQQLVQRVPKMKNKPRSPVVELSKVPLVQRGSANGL
How it is done:
as §1

Assay [4] addresses T4, TSF1 (Homo sapiens, UniProt O75716).
T4 construct: purchased Reaction Biology Europe GmbH (formerly ProQinase)
As for the experimental part: as §1

Assay [5] has as its target T5, CSK (Homo sapiens, UniProt P41240).
T5 construct: purchased Reaction Biology Europe GmbH (formerly ProQinase)
How it is done:
as §1

For assay [6], the target named is T6, RON (Homo sapiens, UniProt Q04912).
T6 construct: purchased Reaction Biology Europe GmbH (formerly ProQinase)
As for the experimental part:
as §1

In assay [7] the target is T7, NIK (Homo sapiens, UniProt Q99558).
T7 construct: purchased Reaction Biology Europe GmbH (formerly ProQinase)
As for the experimental part:
as §1

Assay [8] concerns the target T8, CLK1 (Homo sapiens, UniProt P49759).
T8 construct: purchased Reaction Biology Europe GmbH (formerly ProQinase)
How it is done: as §1

The target of assay [9] is T9, FLT3 (Homo sapiens, UniProt P36888).
T9 construct: purchased Reaction Biology Europe GmbH (formerly ProQinase)
T9 sequence (P36888 27-993): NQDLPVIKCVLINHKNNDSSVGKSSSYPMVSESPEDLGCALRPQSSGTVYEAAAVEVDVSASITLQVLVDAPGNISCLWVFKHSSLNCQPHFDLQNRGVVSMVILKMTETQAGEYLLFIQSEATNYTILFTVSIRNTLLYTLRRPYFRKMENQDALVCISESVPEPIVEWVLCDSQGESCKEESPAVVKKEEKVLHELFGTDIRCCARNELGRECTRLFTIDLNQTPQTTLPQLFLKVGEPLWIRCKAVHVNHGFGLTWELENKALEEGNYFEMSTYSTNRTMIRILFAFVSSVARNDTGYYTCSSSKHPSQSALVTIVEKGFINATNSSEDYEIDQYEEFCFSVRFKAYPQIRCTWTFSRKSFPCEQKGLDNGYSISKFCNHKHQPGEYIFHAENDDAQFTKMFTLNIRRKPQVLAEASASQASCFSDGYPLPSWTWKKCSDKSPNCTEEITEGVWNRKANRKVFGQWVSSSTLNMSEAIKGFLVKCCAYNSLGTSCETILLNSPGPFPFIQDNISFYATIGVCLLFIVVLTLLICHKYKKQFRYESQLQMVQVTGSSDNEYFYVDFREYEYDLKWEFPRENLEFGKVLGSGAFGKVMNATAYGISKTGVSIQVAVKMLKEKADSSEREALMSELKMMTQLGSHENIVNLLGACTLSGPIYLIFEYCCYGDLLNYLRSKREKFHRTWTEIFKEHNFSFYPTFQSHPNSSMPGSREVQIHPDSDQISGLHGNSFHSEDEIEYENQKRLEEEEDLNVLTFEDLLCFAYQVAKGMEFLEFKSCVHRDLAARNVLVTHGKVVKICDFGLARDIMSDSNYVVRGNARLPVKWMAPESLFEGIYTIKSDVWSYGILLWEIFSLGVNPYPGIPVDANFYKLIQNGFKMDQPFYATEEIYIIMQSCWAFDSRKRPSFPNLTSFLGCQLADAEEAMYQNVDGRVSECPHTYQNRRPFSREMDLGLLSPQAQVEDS
How it is done: as §1

In assay [10] the target is T10, AuroraB (Homo sapiens, UniProt Q96GD4).
T10 construct: purchased Reaction Biology Europe GmbH (formerly ProQinase)
How it is done: as §1

T5 sequence (P41240 whole entry): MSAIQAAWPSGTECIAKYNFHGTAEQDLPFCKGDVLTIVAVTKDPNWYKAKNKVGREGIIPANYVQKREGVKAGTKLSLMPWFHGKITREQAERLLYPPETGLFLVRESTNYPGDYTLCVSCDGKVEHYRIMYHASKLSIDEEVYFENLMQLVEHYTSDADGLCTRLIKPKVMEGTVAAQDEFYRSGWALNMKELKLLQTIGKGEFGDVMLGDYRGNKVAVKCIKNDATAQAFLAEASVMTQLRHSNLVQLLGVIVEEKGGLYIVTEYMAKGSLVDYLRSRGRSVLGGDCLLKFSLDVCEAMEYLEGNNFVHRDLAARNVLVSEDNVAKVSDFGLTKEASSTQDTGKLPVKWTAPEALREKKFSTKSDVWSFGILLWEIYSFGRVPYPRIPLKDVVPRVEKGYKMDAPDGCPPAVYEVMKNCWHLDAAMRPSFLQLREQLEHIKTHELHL
T7 sequence (Q99558 whole entry): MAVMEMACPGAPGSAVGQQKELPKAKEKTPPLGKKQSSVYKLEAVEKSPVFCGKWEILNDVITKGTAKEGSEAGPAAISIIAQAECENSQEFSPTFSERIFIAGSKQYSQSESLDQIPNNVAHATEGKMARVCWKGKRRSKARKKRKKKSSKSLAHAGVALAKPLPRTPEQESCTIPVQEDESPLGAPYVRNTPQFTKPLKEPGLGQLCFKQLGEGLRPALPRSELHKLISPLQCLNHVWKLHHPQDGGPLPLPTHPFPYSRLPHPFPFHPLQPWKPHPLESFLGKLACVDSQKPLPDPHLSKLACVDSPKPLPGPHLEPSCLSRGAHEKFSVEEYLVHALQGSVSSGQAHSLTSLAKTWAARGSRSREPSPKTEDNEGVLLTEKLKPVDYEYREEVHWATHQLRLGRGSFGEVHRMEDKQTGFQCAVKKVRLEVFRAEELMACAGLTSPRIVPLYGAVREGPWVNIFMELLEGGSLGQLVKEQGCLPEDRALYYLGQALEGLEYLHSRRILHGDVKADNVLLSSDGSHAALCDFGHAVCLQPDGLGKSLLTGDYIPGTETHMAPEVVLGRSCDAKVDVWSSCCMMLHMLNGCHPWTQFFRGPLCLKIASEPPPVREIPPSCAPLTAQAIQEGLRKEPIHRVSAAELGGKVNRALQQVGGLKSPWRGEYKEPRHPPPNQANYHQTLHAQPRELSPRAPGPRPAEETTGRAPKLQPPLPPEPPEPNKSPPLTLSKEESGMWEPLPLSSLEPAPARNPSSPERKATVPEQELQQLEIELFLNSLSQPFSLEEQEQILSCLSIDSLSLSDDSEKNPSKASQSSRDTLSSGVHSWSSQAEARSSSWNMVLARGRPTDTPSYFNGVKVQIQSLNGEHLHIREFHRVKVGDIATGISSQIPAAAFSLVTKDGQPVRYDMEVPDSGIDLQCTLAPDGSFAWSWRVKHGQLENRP
T4 sequence (O75716 whole entry): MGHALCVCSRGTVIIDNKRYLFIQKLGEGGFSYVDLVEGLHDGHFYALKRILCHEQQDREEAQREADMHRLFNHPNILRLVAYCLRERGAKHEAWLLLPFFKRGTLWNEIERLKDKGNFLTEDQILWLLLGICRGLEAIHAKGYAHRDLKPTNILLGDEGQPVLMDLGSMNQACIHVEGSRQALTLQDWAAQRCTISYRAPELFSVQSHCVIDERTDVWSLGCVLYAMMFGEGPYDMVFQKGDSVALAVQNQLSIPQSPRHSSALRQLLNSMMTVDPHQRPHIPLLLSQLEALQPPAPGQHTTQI
T8 sequence (P49759 whole entry): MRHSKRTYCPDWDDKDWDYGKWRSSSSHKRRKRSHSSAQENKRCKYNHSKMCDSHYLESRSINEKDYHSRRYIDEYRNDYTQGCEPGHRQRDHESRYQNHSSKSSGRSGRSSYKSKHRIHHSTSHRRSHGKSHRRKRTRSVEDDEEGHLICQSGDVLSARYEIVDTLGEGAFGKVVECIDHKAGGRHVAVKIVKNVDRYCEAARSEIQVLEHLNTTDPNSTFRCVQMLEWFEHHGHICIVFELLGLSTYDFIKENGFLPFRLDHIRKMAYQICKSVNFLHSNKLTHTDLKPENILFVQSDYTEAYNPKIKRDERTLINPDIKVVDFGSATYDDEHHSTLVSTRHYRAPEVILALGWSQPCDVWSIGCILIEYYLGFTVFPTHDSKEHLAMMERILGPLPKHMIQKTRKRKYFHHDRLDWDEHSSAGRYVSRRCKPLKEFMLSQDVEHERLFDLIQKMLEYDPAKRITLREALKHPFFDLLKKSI
T10 sequence (Q96GD4 whole entry): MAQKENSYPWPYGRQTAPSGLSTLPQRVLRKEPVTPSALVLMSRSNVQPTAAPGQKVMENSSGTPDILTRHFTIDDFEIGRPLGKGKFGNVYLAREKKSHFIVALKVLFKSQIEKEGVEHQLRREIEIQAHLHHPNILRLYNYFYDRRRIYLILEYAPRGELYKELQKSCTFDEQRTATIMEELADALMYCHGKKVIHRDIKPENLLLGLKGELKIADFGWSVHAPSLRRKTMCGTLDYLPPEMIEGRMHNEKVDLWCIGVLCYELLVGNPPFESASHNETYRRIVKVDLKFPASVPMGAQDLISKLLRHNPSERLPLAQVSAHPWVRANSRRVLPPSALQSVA
T6 sequence (Q04912 25-1400): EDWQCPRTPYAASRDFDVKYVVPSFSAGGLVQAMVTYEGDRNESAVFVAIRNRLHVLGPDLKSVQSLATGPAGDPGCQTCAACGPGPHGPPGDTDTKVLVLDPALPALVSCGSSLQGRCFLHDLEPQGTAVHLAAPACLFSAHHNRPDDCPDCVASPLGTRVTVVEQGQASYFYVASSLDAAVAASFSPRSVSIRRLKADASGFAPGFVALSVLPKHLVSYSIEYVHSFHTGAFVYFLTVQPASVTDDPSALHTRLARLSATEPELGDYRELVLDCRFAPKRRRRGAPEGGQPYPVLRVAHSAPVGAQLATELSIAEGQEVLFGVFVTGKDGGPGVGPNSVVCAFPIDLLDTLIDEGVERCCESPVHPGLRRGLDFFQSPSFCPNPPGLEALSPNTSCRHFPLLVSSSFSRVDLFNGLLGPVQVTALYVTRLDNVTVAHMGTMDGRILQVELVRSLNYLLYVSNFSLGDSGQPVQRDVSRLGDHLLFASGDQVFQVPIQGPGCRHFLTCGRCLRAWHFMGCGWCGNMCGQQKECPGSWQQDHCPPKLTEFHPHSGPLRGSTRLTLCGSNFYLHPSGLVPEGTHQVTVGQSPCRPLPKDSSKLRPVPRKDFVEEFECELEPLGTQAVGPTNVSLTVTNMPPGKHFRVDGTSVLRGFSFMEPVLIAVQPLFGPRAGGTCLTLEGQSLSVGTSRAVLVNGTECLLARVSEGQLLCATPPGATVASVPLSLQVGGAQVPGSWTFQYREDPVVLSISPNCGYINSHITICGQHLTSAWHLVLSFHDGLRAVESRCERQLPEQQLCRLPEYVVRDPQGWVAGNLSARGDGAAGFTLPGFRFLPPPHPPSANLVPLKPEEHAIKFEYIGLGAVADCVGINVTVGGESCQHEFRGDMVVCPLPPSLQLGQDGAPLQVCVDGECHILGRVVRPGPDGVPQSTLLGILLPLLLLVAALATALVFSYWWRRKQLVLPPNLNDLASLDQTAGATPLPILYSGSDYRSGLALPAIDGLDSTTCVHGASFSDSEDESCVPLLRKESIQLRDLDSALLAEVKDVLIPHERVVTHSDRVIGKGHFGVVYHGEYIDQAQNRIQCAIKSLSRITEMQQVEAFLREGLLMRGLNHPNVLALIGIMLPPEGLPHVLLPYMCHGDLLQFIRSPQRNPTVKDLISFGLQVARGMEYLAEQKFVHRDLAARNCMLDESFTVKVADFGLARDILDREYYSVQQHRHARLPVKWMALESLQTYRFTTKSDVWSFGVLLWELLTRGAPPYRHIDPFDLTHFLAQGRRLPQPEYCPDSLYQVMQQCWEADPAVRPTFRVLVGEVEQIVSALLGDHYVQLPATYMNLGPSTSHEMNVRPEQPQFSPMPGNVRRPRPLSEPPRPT

With `c1ccc(CNc2cc(-c3c[nH]c4ncccc34)ccn2)cc1` [meriolin 36], the residual kinase activity is on record as 29 % of control in [1] (0.3 µM); 9 % of control in assay [1] (3 µM); 78 % of control in assay [2] (0.3 µM); 24 % of control in [2] (3 µM); 99 % of control in [3] (0.3 µM); 51 % of control in assay [3] (3 µM). The residual kinase activity in [4] (0.3 µM) was 57 % of control; in [4] (3 µM), 8 % of control; in [5] (0.3 µM), 116 % of control; in [5] (3 µM), 71 % of control; in [6] (0.3 µM), 98 % of control; in assay [6] (3 µM), 76 % of control. Moreover, the residual kinase activity in assay [7] (0.3 µM) was 59 % of control; in [7] (3 µM), 33 % of control; in assay [8] (0.3 µM), 4 % of control; in assay [8] (3 µM) it was 2 % of control; in [9] (0.3 µM) it was 9 % of control; in assay [9] (3 µM) it was 2 % of control. Moreover, the figures for the residual kinase activity in [10] (0.3 µM) and in assay [10] (3 µM) were 67 % of control and 26 % of control, respectively.
As for `COc1ccnc2[nH]cc(-c3cc(N)nc(N)c3)c12` [meriolin 16], the residual kinase activity is 82 % of control in [1] (0.03 µM); 39 % of control in [1] (0.3 µM); 91 % of control in [2] (0.03 µM); 105 % of control in assay [2] (0.3 µM); 96 % of control in assay [3] (0.03 µM); 106 % of control in [3] (0.3 µM). In addition, the residual kinase activity is 109 % of control in assay [4] (0.03 µM); 104 % of control in [4] (0.3 µM); 114 % of control in assay [5] (0.03 µM); 106 % of control in assay [5] (0.3 µM); 92 % of control in assay [6] (0.03 µM); 90 % of control in assay [6] (0.3 µM). The residual kinase activity in assay [7] (0.03 µM) is 94 % of control; in assay [7] (0.3 µM), 79 % of control; in [8] (0.03 µM), 11 % of control; in [8] (0.3 µM), 3 % of control; in assay [9] (0.03 µM), 49 % of control; in assay [9] (0.3 µM), 21 % of control. In addition, the residual kinase activity in assay [10] (0.03 µM) is recorded as 85 % of control; in assay [10] (0.3 µM), 61 % of control.

The values above are taken from paper PMC11167047 (Cell Death Discovery, 2024).
